# Reference: PMC10563463 (Cell Transplantation, 2023)
# Molecular target: recombinant human SUV39H1 (rhSUV39H1) (Homo sapiens, UniProt O43463)
# Assay: biochemical
# recombinant human SUV39H1 (rhSUV39H1), sequence (O43463 whole entry): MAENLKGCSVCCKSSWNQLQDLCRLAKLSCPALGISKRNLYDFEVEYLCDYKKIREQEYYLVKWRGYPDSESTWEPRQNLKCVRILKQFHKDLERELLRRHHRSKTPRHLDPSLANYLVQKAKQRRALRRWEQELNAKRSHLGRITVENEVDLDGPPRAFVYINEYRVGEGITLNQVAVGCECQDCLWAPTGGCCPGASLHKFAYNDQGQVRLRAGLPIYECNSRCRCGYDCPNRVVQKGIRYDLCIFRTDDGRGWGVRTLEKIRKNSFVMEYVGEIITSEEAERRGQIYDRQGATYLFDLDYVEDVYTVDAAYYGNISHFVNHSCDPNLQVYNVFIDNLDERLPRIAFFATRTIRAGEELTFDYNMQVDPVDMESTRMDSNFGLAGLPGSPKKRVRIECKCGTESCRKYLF
structure (smiles),measurement,value
CC(C)(O)[C@@H]1CC[C@](C)([C@H]2[C@@H](O)C[C@@]3(C)[C@@H]4C[C@H](O[C@@H]5O[C@H](CO)[C@@H](O)[C@H](O)[C@H]5O)[C@H]5C(C)(C)[C@@H](O[C@@H]6OC[C@@H](O)[C@H](O)[C@H]6O)CC[C@@]56C[C@@]46CC[C@]23C)O1 [Astragaloside IV],Kd,21.4 µM
